Results on four molecules are retold here after PubChem BioAssay (NCI).

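These data come from cells grown in 96-well plates and exposed to compound for 48 hours at five concentrations. TGI is the concentration that stops growth completely.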 Some results are limits rather than exact numbers.

The subject of the experiment is DMS 273 small cell lung. Nature of the experiment: DTP human tumour cell line panel, 48 h.

The molecule `CC(C)OP(=O)(OC(C)C)C(=Nc1ccc(N=C(NNc2ccc([N+](=O)[O-])cc2)P(=O)(OC(C)C)OC(C)C)cc1)NNc1ccc([N+](=O)[O-])cc1` displayed a TGI greater than 100 µM.

Molecule `CS(=O)(=O)Sc1ccc(Cl)cc1` had a TGI of 17.4 µM.

As to `CCCCCCCCCCCCOC(=N)N1CCOCC1`, the TGI was determined as 25.1 µM. The TGI values of the last two molecules are within 1.5-fold of each other.

`COC(=O)C(Cc1ccc2c(c1)OCO2)(NC(=O)c1ccccc1)P(=O)(OC)OC` (centres undefined) returned a TGI greater than 100 µM.

As a reminder, the TGI is the concentration at which net growth stops.
